In ChEMBL document CHEMBL3297733, “Discovery and optimization of pyrrolo[1,2-a]pyrazinones leads to novel and selective inhibitors of PIM kinases” (Bioorg Med Chem, 2013):
Values belong to the compound of their own block, whether it stands above or below them.

What was measured:
[1] = molecular target: Cell division cycle 7-related protein kinase (Homo sapiens, UniProt O00311); experiment: Inhibition of CDC7 (unknown origin)
[2] = molecular target: Glycogen synthase kinase-3 beta (Homo sapiens, UniProt P49841); experiment: Inhibition of GSK3beta (unknown origin)
[3] = molecular target: Serine/threonine-protein kinase pim-1 (Homo sapiens, UniProt P11309); experiment: Inhibition of human PIM1 using ARK-RERTYSFGHHA as substrate incubated for 60 mins prior to substrate addition by topcount scintillation counting analysis in presence of [P33gamma]-ATP
[4] = molecular target: Cyclin-dependent kinase 2 (Homo sapiens, UniProt P24941); experiment: Inhibition of CDK2 (unknown origin)
[5] = Intrinsic clearance in human liver microsomes after 5 mins by LC-MS/MS analysis; type: ADME; settings: read-out: CLH
[6] = Cytotoxicity against mouse BA/F3 cells overexpressing PIM1 after 72 hrs by CellTitre-Glo assay; type: functional, cell-based; settings: BaF3, 72 h
[7] = Apparent permeability from apical to basolateral side in human Caco2 cells after 120 mins by LC-MS/MS analysis; settings: Caco-2
[8] = molecular target: Serine/threonine-protein kinase pim-2 (Homo sapiens, UniProt Q9P1W9); experiment: Inhibition of human PIM2 using ARK-RERTYSFGHHA as substrate incubated for 60 mins prior to substrate addition by topcount scintillation counting analysis in presence of [P33gamma]-ATP
Casein kinase II = Casein kinase II (Homo sapiens, UniProt P19784+P67870+P68400); experiment: Inhibition of CK2 (unknown origin); type: protein-complex assay
[9] = molecular target: Platelet-derived growth factor receptor (Homo sapiens, UniProt P09619+P16234); experiment: Inhibition of PDGFR (unknown origin); type: protein-complex assay
[10] = Apparent permeability by PAMPA; type: physicochemical
[11] = Thermodynamic aqueous solubility of the compound at pH 7; type: physicochemical; settings: buffer

Serine/threonine-protein kinase pim-2, sequence (Q9P1W9 whole entry): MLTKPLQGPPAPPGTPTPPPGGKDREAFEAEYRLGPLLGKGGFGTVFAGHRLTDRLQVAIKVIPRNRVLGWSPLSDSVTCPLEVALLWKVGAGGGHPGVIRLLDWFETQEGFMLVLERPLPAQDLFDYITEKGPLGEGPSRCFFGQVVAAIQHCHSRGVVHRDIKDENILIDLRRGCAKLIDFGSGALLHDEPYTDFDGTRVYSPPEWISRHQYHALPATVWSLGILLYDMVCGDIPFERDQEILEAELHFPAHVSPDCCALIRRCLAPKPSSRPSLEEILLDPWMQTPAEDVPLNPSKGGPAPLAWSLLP
Serine/threonine-protein kinase pim-1, sequence (P11309 whole entry): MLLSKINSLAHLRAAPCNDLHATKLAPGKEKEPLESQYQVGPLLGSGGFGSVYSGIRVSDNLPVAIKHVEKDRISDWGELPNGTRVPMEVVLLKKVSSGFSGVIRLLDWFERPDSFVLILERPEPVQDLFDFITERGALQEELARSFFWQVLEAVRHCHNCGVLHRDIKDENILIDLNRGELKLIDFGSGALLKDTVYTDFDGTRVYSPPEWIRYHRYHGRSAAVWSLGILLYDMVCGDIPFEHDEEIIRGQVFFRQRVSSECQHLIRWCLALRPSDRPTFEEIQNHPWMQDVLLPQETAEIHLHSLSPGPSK
Glycogen synthase kinase-3 beta, sequence (P49841 whole entry): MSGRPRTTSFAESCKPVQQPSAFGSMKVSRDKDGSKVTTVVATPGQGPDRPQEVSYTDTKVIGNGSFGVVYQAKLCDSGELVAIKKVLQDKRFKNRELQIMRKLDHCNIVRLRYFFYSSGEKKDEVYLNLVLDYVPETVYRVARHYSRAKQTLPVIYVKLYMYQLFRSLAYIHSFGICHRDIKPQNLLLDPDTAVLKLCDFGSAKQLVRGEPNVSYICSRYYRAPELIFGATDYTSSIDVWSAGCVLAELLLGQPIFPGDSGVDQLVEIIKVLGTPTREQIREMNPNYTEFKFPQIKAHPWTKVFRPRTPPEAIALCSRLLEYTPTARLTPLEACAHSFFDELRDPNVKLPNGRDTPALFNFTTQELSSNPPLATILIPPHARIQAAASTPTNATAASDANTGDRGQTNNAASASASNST
Cell division cycle 7-related protein kinase, sequence (O00311 whole entry): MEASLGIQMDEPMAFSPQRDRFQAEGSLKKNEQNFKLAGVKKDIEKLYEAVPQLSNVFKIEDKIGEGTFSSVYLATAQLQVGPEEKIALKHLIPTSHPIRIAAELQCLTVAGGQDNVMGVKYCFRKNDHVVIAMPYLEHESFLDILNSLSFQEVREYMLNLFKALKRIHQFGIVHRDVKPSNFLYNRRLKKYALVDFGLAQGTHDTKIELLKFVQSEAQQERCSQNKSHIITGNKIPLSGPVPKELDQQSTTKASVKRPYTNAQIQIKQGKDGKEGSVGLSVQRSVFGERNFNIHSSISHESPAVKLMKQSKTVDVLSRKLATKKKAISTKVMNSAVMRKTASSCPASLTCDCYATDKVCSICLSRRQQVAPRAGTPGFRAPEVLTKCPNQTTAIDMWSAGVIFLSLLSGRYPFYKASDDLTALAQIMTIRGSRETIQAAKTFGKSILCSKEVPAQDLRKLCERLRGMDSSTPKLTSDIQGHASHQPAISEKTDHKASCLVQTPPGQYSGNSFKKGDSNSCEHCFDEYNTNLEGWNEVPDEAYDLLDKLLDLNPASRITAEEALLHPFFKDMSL
Casein kinase II, sequence (P67870 whole entry): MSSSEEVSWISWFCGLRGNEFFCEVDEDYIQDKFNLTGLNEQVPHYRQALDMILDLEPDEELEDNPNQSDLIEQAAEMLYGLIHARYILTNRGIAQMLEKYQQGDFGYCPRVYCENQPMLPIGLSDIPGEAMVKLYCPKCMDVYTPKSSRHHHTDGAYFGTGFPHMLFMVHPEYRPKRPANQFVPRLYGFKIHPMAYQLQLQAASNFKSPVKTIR
Casein kinase II, sequence (P68400 whole entry): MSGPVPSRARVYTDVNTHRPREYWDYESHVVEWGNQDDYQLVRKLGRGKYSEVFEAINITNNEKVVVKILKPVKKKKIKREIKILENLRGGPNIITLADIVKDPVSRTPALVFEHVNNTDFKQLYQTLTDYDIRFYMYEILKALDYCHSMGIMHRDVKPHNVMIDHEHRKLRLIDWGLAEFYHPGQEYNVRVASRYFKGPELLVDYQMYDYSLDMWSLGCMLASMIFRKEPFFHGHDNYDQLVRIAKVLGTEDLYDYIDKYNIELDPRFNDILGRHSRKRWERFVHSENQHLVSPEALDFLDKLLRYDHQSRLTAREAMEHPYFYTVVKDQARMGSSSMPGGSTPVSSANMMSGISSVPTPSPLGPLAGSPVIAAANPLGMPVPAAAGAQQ
Casein kinase II, sequence (P19784 whole entry): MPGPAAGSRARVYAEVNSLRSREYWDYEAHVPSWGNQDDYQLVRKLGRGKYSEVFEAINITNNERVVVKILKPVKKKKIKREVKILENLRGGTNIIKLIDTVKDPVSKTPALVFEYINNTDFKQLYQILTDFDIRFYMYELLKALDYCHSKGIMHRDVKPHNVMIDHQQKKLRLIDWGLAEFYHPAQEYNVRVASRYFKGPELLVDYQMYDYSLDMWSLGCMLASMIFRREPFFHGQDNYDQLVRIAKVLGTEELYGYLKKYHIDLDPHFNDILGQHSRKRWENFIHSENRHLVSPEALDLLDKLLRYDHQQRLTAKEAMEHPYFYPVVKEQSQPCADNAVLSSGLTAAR

SMILES: O=C(CC1CNC(=O)c2cc(-c3cn[nH]c3)cn21)NCc1cccc(F)c1 (racemic)
IC50 [1]: 284 nM
IC50 [2]: 386 nM
IC50 [3]: 1100 nM
IC50 [4]: 60 nM

SMILES: CC(C)(C)CNC(=O)CC1CNC(=O)c2cc(-c3cccc(F)c3)cn21 (racemic)
IC50 [3]: 1940 nM

SMILES: CC(C)(C)CNC(=O)CC1CNC(=O)c2cc(-c3ccsc3)cn21 (racemic)
IC50 (Casein kinase II): > 10000 nM
CLint scaled [5]: 81 mL/min/kg
IC50 [9]: > 10000 nM
Papp [10]: 48 ×10⁻⁶ cm/s
Therm_solubility [11]: 68 mg/mL

SMILES: O=C(CC1CNC(=O)c2cc(-c3cccc(F)c3)cn21)NCC1CCCCC1 (racemic)
CLint scaled [5]: 48.5 mL/min/kg
IC50 [6]: 1110 nM
Papp A→B at 2 h [7]: 11.2 ×10⁻⁶ cm/s

SMILES: Cc1ccc(Cl)cc1-c1cc2n(c1)C(CC(=O)NCc1ccco1)CNC2=O (racemic)
IC50 [3]: > 5000 nM
IC50 [8]: > 5000 nM

SMILES: O=C(CC1CNC(=O)c2cc(-c3cccc(Cl)c3)cn21)NCc1ccco1 (racemic)
CLint scaled [5]: 97.4 mL/min/kg
IC50 [6]: 2430 nM
Papp A→B at 2 h [7]: 33.1 ×10⁻⁶ cm/s

SMILES: CN(C)C1CCN(C[C@@H](NC(=O)C[C@H]2CNC(=O)c3cc(-c4cccc(Cl)c4)cn32)C2CCCCC2)CC1
CLint scaled [5]: 5 mL/min/kg
IC50 [6]: 480 nM
Papp A→B at 2 h [7]: 1.01 ×10⁻⁶ cm/s

SMILES: CN1CCN(C[C@@H](NC(=O)C[C@H]2CNC(=O)c3cc(-c4cc(Cl)ccc4F)cn32)C2CCCCC2)CC1
IC50 [6]: 147 nM

SMILES: NC[C@@H](NC(=O)C[C@H]1CNC(=O)c2cc(-c3ccnc(F)c3)cn21)c1ccccc1
CLint scaled [5]: 6.5 mL/min/kg
IC50 [6]: > 10000 nM
Papp A→B at 2 h [7]: 0.9 ×10⁻⁶ cm/s

SMILES: CC(C)(C)CNC(=O)CC1CNC(=O)c2cc(-c3ccccc3F)cn21 (racemic)
IC50 [3]: 1720 nM

SMILES: CC(C)(C)CNC(=O)CC1CNC(=O)c2cc(-c3ccc(OC(F)(F)F)cc3)cn21 (racemic)
IC50 [3]: > 10000 nM

SMILES: CC(C)(C)CNC(=O)CC1CNC(=O)c2cc(-c3ccccc3)cn21 (racemic)
IC50 [3]: 2540 nM

SMILES: CC(C)(C)CNC(=O)CC1CNC(=O)c2cc(-c3ccncc3)cn21 (racemic)
IC50 [2]: 4610 nM
IC50 [3]: 5470 nM

SMILES: CC(C)(C)CNC(=O)CC1CNC(=O)c2cc(-c3cccc(OC(F)(F)F)c3)cn21 (racemic)
IC50 [3]: 1270 nM

SMILES: CC(C)(C)CNC(=O)CC1CNC(=O)c2cc(-c3ccc(F)cc3)cn21 (racemic)
IC50 [3]: 2550 nM

SMILES: O=C(CC1CNC(=O)c2cc(-c3cccc(C(F)(F)F)c3)cn21)NCC1CCOCC1 (racemic)
IC50 [3]: 838 nM
IC50 [8]: 3130 nM

Second part, led by results:

CLint scaled [5]: 87.8 mL/min/kg
Papp A→B at 2 h [7]: 1.3 ×10⁻⁶ cm/s
IC50 [3]: 141 nM
SMILES: O=C(C[C@H]1CNC(=O)c2cc(-c3cccc(F)c3)cn21)N[C@H](CO)Cc1ccccc1
IC50 [6]: 3050 nM

IC50 [3]: 5 nM
IC50 [8]: 262 nM
SMILES: CN1CCN(C[C@@H](NC(=O)C[C@H]2CNC(=O)c3cc(-c4cccc(Cl)c4)cn32)C(C)(C)C)CC1

CLint scaled [5]: 10.1 mL/min/kg
Papp A→B at 2 h [7]: 0.8 ×10⁻⁶ cm/s
IC50 [3]: 12 nM
IC50 [8]: 275 nM
SMILES: NC[C@@H](NC(=O)C[C@H]1CNC(=O)c2cc(-c3cccc(F)c3)cn21)C1CCCCC1
IC50 [6]: > 10000 nM

IC50 [3]: 125 nM
SMILES: O=C(CC1CNC(=O)c2cc(-c3ccc(F)c(F)c3)cn21)NCc1ccco1 (racemic)
IC50 [6]: 3640 nM

CLint scaled [5]: 400 mL/min/kg
Papp A→B at 2 h [7]: 11.8 ×10⁻⁶ cm/s
IC50 [3]: 94 nM
SMILES: O=C(CC1CNC(=O)c2cc(-c3ccc(F)c(F)c3)cn21)NCC1CCCCC1 (racemic)
IC50 [6]: 1270 nM

IC50 [3]: 530 nM
IC50 [8]: > 5000 nM
SMILES: C[C@@H](CN1CCN(C)CC1)NC(=O)C[C@H]1CNC(=O)c2cc(-c3cccc(Cl)c3)cn21

CLint scaled [5]: 8.3 mL/min/kg
Papp A→B at 2 h [7]: 0.6 ×10⁻⁶ cm/s
IC50 [3]: 10 nM
SMILES: NC[C@@H](NC(=O)C[C@H]1CNC(=O)c2cc(-c3cccc(F)c3)cn21)c1ccccc1
IC50 [6]: > 10000 nM

CLint scaled [5]: 6.7 mL/min/kg
IC50 [3]: 9 nM
IC50 [8]: 150 nM
SMILES: CN1CCN(C[C@@H](NC(=O)C[C@H]2CNC(=O)c3cc(-c4cccc(F)c4)cn32)C2CCCCC2)CC1
IC50 [6]: 490 nM

CLint scaled [5]: 197 mL/min/kg
Papp A→B at 2 h [7]: 0.9 ×10⁻⁶ cm/s
IC50 [3]: 33 nM
IC50 [8]: 1320 nM
SMILES: O=C(CC1CNC(=O)c2cc(-c3ccnc(Cl)n3)cn21)NCC1CCCCC1 (racemic)
IC50 [6]: > 5000 nM

Papp A→B at 2 h [7]: 0.33 ×10⁻⁶ cm/s
IC50 [3]: 13 nM
IC50 [8]: 95 nM
SMILES: CN1CCN(C[C@@H](NC(=O)C[C@H]2CNC(=O)c3cc(-c4ccnc(F)c4)cn32)C2CCCCC2)CC1
IC50 [6]: 2480 nM

IC50 [3]: 233 nM
SMILES: CN1CCN(C(=O)C[C@H]2CNC(=O)c3cc(-c4cccc(F)c4)cn32)[C@@H](c2ccccc2)C1

IC50 [3]: 26 nM
IC50 [8]: 250 nM
SMILES: CN1CCN(C[C@@H](NC(=O)C[C@H]2CNC(=O)c3cc(-c4ccc(F)c(F)c4)cn32)C2CCCCC2)CC1
IC50 [6]: 156 nM

IC50 [3]: 132 nM
IC50 [8]: 2410 nM
SMILES: O=C(CC1CNC(=O)c2cc(-c3cc(Cl)ccc3F)cn21)NCc1ccco1 (racemic)

CLint scaled [5]: 14.6 mL/min/kg
Papp A→B at 2 h [7]: 1.1 ×10⁻⁶ cm/s
IC50 [3]: 16 nM
SMILES: O=C(C[C@H]1CNC(=O)c2cc(-c3cccc(F)c3)cn21)N[C@H](CO)C1CCCCC1
IC50 [6]: 1530 nM

CLint scaled [5]: 55 mL/min/kg
Papp A→B at 2 h [7]: 2.7 ×10⁻⁶ cm/s
IC50 [3]: 87 nM
SMILES: O=C(C[C@H]1CNC(=O)c2cc(-c3cccc(F)c3)cn21)N[C@H](CO)c1ccccc1
IC50 [6]: 3720 nM

IC50 [3]: 521 nM
SMILES: CC(C)(C)CNC(=O)CC1CNC(=O)c2cc(-c3cccc(C(F)(F)F)c3)cn21 (racemic)

IC50 [3]: 375 nM
SMILES: O=C(CC1CNC(=O)c2cc(-c3cccc(C(F)(F)F)c3)cn21)NCC1CCCCC1 (racemic)

CLint scaled [5]: 400 mL/min/kg
Papp A→B at 2 h [7]: 11.9 ×10⁻⁶ cm/s
IC50 [3]: 124 nM
SMILES: O=C(CC1CNC(=O)c2cc(-c3ccccc3F)cn21)NCC1CCCCC1 (racemic)
IC50 [6]: 1790 nM

IC50 [3]: 614 nM
SMILES: O=C(CC1CNC(=O)c2cc(-c3cccc(C(F)(F)F)c3)cn21)NCc1cccc(F)c1 (racemic)
